Measurements reported in ChEMBL document CHEMBL1201861, “Genomics of Drug Sensitity in Cancer screening data, Wellcome Trust Sanger Institute”.

Assays:
Assay type in all cases: functional, cell-based
TUR = assay: cells; settings: Homo sapiens;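 further: growth inhibition of human TUR cells, read out with a cell viability assay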
Description: SANGER: Inhibition of human TUR cell growth in a cell viability assay.

SNU-16 = assay: cells; settings: Homo sapiens;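 further: growth inhibition of human SNU-16 cells, determined with a cell viability readout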
Description: SANGER: Inhibition of human NCI-SNU-16 cell growth in a cell viability assay.

NB17 = assay: cells; settings: Homo sapiens;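 further: growth inhibition of NB17 cells, read out with a cell viability assay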
Description: SANGER: Inhibition of human NB17 cell growth in a cell viability assay.

MHH-CALL-2 = assay: cells; settings: Homo sapiens;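 further: growth inhibition of the cell line, read out in a cell viability assay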
Description: SANGER: Inhibition of human MHH-CALL-2 cell growth in a cell viability assay.

LC-1F = assay: cells; settings: Homo sapiens;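 further: growth inhibition of human LC-1F cells, read out with a cell viability assay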
Description: SANGER: Inhibition of human LC-1F cell growth in a cell viability assay.

Raji = assay: cells; settings: Homo sapiens;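 further: cell viability assay measuring inhibition of Raji cell growth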
Description: SANGER: Inhibition of human Raji cell growth in a cell viability assay.

D-247MG = assay: cells; settings: Homo sapiens
Description: SANGER: Inhibition of human D-247MG cell growth in a cell viability assay.

NB7 = assay: cells; settings: Homo sapiens;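 further: growth inhibition of NB7 cells, read out with a cell viability assay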
Description: SANGER: Inhibition of human NB7 cell growth in a cell viability assay.

U-698-M = assay: cells; settings: Homo sapiens
Description: SANGER: Inhibition of human U-698-M cell growth in a cell viability assay.

A253 cell line = assay: cells; settings: Homo sapiens;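 further: growth inhibition of A253 cells, read out with a cell viability assay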
Description: SANGER: Inhibition of human A253 cell growth in a cell viability assay.

DG-75 = assay: cells; settings: Homo sapiens;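 further: growth inhibition of DG-75 cells, read out with a cell viability assay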
Description: SANGER: Inhibition of human DG-75 cell growth in a cell viability assay.

REH = assay: cells; settings: Homo sapiens;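 further: growth inhibition of REH cells determined with a cell viability read-out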
Description: SANGER: Inhibition of human REH cell growth in a cell viability assay.

TE-15 = assay: cells; settings: Homo sapiens;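 further: cell viability readout of growth inhibition in TE-15 cells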
Description: SANGER: Inhibition of human TE-15 cell growth in a cell viability assay.

NCCIT = assay: SANGER: Inhibition of human NCCIT cell growth in a cell viability assay.
LOUCY = assay: cells; settings: Homo sapiens;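 further: growth inhibition of human LOUCY cells, read out with a cell viability assay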
Description: SANGER: Inhibition of human LOUCY cell growth in a cell viability assay.

SCC-3 = assay: cells; settings: Homo sapiens;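 further: cell viability assay measuring inhibition of SCC-3 cell growth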
Description: SANGER: Inhibition of human SCC-3 cell growth in a cell viability assay.

RPMI 8402 = assay: SANGER: Inhibition of human RPMI-8402 cell growth in a cell viability assay.
NCI-H2052 = assay: cells; settings: Homo sapiens;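 further: growth inhibition of NCI-H2052 cells, read out with a cell viability assay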
Description: SANGER: Inhibition of human NCI-H2052 cell growth in a cell viability assay.

SCC-9 = assay: cells; settings: Homo sapiens;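 further: Read-out is a cell viability assay, with values giving inhibition of cell growth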
Description: SANGER: Inhibition of human SCC-9 cell growth in a cell viability assay.

NCI-H2170 = assay: cells; settings: Homo sapiens;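 further: cell viability assay measuring growth inhibition of human NCI-H2170 cancer cells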
Description: SANGER: Inhibition of human NCI-H2170 cell growth in a cell viability assay.

U-118-MG = assay: cells; settings: Homo sapiens
Description: SANGER: Inhibition of human U-118-MG cell growth in a cell viability assay.

T98G = assay: cells; settings: Homo sapiens;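 further: growth inhibition of T98G cells, read out by a cell viability assay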
Description: SANGER: Inhibition of human T98G cell growth in a cell viability assay.

HCC70 = assay: cells; settings: Homo sapiens;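 further: cell viability assay measuring how strongly the compound suppresses proliferation of HCC70 cells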
Description: SANGER: Inhibition of human HCC70 cell growth in a cell viability assay.

SW756 = assay: cells; settings: Homo sapiens;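 further: growth inhibition of human SW756 cells, read out with a cell viability assay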
Description: SANGER: Inhibition of human SW756 cell growth in a cell viability assay.

SW48 = assay: cells; settings: Homo sapiens;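 further: growth inhibition of SW48 cells, read out with a cell viability assay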
Description: SANGER: Inhibition of human SW48 cell growth in a cell viability assay.

KYSE-510 = assay: cells; settings: Homo sapiens;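 further: cell viability readout used to measure how strongly growth of the cell line is suppressed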
Description: SANGER: Inhibition of human KYSE-510 cell growth in a cell viability assay.

NCI-H1651 = assay: cells; settings: Homo sapiens;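 further: Read-out is a cell viability assay, with IC50 expressing inhibition of NCI-H1651 cell growth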
Description: SANGER: Inhibition of human NCI-H1651 cell growth in a cell viability assay.

NCI-H1623 = assay: cells; settings: Homo sapiens;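 further: cell viability assay used as the read-out for growth inhibition of NCI-H1623 cells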
Description: SANGER: Inhibition of human NCI-H1623 cell growth in a cell viability assay.

G-361 = assay: cells; settings: Homo sapiens
BHT-101 = assay: cells; settings: Homo sapiens
Description: SANGER: Inhibition of human BHT-101 cell growth in a cell viability assay.

NUGC-3 = assay: cells; settings: Homo sapiens;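 further: growth inhibition of human NUGC-3 cells, read out with a cell viability assay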
Description: SANGER: Inhibition of human NUGC-3 cell growth in a cell viability assay.

KYSE-150 cell line = assay: cells; settings: Homo sapiens;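 further: growth inhibition of human KYSE-150 cells, read out with a cell viability assay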
Description: SANGER: Inhibition of human KYSE-150 cell growth in a cell viability assay.

NCI-H1693 = assay: cells; settings: Homo sapiens;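 further: growth inhibition of the human cell line, read out with a cell viability assay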
Description: SANGER: Inhibition of human NCI-H1693 cell growth in a cell viability assay.

NCI-H1703 = assay: cells; settings: Homo sapiens;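 further: growth inhibition of NCI-H1703 cells, read out via a cell viability assay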
Description: SANGER: Inhibition of human NCI-H1703 cell growth in a cell viability assay.

HCT-15 = assay: cells; settings: Homo sapiens;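 further: cell viability readout, IC50 reflecting suppression of HCT-15 cell growth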
Description: SANGER: Inhibition of human HCT-15 cell growth in a cell viability assay.

EFO-21 = assay: cells; settings: Homo sapiens;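 further: growth inhibition of EFO-21 cells measured with a viability assay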
Description: SANGER: Inhibition of human EFO-21 cell growth in a cell viability assay.

CAL-39 = assay: cells; settings: Homo sapiens;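 further: cell viability assay measuring growth inhibition of CAL-39 cells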
Description: SANGER: Inhibition of human CAL-39 cell growth in a cell viability assay.

RCM-1 = assay: cells; settings: Homo sapiens;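 further: growth inhibition of the RCM-1 line, determined with a cell viability readout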
Description: SANGER: Inhibition of human RCM-1 cell growth in a cell viability assay.

BXPC-3 = assay: cells; settings: Homo sapiens;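 further: growth inhibition of human BxPC-3 cells, read out by a cell viability assay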
Description: SANGER: Inhibition of human BxPC-3 cell growth in a cell viability assay.

OAW-28 = assay: cells; settings: Homo sapiens;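 further: growth inhibition of OAW-28 cells, read out with a cell viability assay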
Description: SANGER: Inhibition of human OAW-28 cell growth in a cell viability assay.

HMV-2 cell line = assay: cells; settings: Homo sapiens;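 further: growth inhibition of HMV-II cells, read out with a cell viability assay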
Description: SANGER: Inhibition of human HMV-II cell growth in a cell viability assay.

SW837 = assay: cells; settings: Homo sapiens;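 further: growth inhibition of SW837 cells, determined with a cell viability assay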
Description: SANGER: Inhibition of human SW837 cell growth in a cell viability assay.

NCI-H2122 = assay: cells; settings: Homo sapiens;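 further: growth inhibition of the cells, read out with a cell viability assay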
Description: SANGER: Inhibition of human NCI-H2122 cell growth in a cell viability assay.

NCI-H2452 = assay: cells; settings: Homo sapiens;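 further: growth inhibition of NCI-H2452 cells, read out with a cell viability assay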
Description: SANGER: Inhibition of human NCI-H2452 cell growth in a cell viability assay.

HuO-3N1 = assay: cells; settings: Homo sapiens;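 further: cell viability readout used to measure how strongly compounds suppress proliferation of human HuO-3N1 cells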
Description: SANGER: Inhibition of human HuO-3N1 cell growth in a cell viability assay.

DoTc2-4510 = assay: cells; settings: Homo sapiens
MG-63 = assay: cells; settings: Homo sapiens;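 further: growth inhibition of human MG-63 cells, read out with a cell viability assay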
Description: SANGER: Inhibition of human MG-63 cell growth in a cell viability assay.

KYSE-270 = assay: cells; settings: Homo sapiens;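 further: cell growth inhibition measured with a viability assay in the human KYSE-270 line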
Description: SANGER: Inhibition of human KYSE-270 cell growth in a cell viability assay.

HSC-4 = assay: cells; settings: Homo sapiens;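 further: growth inhibition of human HSC-4 cells, read out with a cell viability assay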
Description: SANGER: Inhibition of human HSC-4 cell growth in a cell viability assay.

CAPAN-1 = assay: cells; settings: Homo sapiens;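 further: growth suppression of CAPAN-1 cells, read out by a cell viability assay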
Description: SANGER: Inhibition of human CAPAN-1 cell growth in a cell viability assay.

HLE = assay: cells; settings: Homo sapiens;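 further: growth inhibition of human HLE cells, read out by a cell viability assay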
Description: SANGER: Inhibition of human HLE cell growth in a cell viability assay.

SKG-IIIa = assay: cells; settings: Homo sapiens;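 further: cell growth inhibition, read out with a cell viability assay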
Description: SANGER: Inhibition of human SKG-IIIa cell growth in a cell viability assay.

MFE-280 = assay: cells; settings: Homo sapiens;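 further: growth inhibition of MFE-280 cells, determined with a cell viability readout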
Description: SANGER: Inhibition of human MFE-280 cell growth in a cell viability assay.

WM-115 = assay: cells; settings: Homo sapiens
Description: SANGER: Inhibition of human WM-115 cell growth in a cell viability assay.

PFSK-1 = assay: cells; settings: Homo sapiens;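 further: cell viability assay measuring how strongly compounds suppress growth of human PFSK-1 cells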
Description: SANGER: Inhibition of human PFSK-1 cell growth in a cell viability assay.

SF-295 = assay: cells; settings: Homo sapiens;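 further: growth inhibition of SF-295 cells, read out with a cell viability assay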
Description: SANGER: Inhibition of human SF295 cell growth in a cell viability assay.

BT-20 = assay: cells; settings: Homo sapiens
Description: SANGER: Inhibition of human BT-20 cell growth in a cell viability assay.

CAL-120 = assay: cells; settings: Homo sapiens
Description: SANGER: Inhibition of human CAL-120 cell growth in a cell viability assay.

CAL-72 = assay: cells; settings: Homo sapiens
Description: SANGER: Inhibition of human CAL-72 cell growth in a cell viability assay.

SNU-449 = assay: cells; settings: Homo sapiens
Description: SANGER: Inhibition of human SNU-449 cell growth in a cell viability assay.

SW13 = assay: cells; settings: Homo sapiens
Description: SANGER: Inhibition of human SW13 cell growth in a cell viability assay.

EFO-27 = assay: cells; settings: Homo sapiens
Description: SANGER: Inhibition of human EFO-27 cell growth in a cell viability assay.

NCI-H292 = assay: cells; settings: Homo sapiens
Description: SANGER: Inhibition of human NCI-H292 cell growth in a cell viability assay.

A673 = assay: cells; settings: Homo sapiens
Description: SANGER: Inhibition of human A673 cell growth in a cell viability assay.

MDA-MB-453 = assay: cells; settings: Homo sapiens
Description: SANGER: Inhibition of human MDA-MB-453 cell growth in a cell viability assay.

Structure (SMILES): CCNc1cc(N[C@H]2CC[C@@H](O)CC2)nc(Nc2ccc3c(ccn3Cc3ccccc3)c2)n1
- IC50 (TUR): > 5.12 µM
- IC50 (SNU-16): > 5.12 µM
- IC50 (NB17): > 5.12 µM
- IC50 (MHH-CALL-2): > 5.12 µM
- IC50 (LC-1F): > 5.12 µM
- IC50 (Raji): > 5.12 µM
- IC50 (D-247MG): > 5.12 µM
- IC50 (NB7): > 5.12 µM
- IC50 (U-698-M): > 5.12 µM
- IC50 (A253 cell line): > 5.12 µM
- IC50 (DG-75): > 5.12 µM
- IC50 (REH): > 5.12 µM
- IC50 (TE-15): 5.12 µM
- IC50 (NCCIT): > 5.12 µM
- IC50 (LOUCY): > 5.12 µM
- IC50 (SCC-3): > 5.12 µM
- IC50 (RPMI 8402): 3.48 µM

Structure (SMILES): COc1cc(C)c(Sc2cnc(NC(=O)c3ccc(CNC(C)C(C)(C)C)cc3)s2)cc1C(=O)N1CCN(C(C)=O)CC1 (stereo not drawn)
- IC50 (TUR): > 10.2 µM
- IC50 (SNU-16): > 10.2 µM
- IC50 (NB17): 8.92 µM
- IC50 (MHH-CALL-2): > 10.2 µM
- IC50 (LC-1F): > 10.2 µM
- IC50 (Raji): > 10.2 µM
- IC50 (D-247MG): > 10.2 µM
- IC50 (NB7): > 10.2 µM
- IC50 (U-698-M): > 10.2 µM
- IC50 (A253 cell line): > 10.2 µM
- IC50 (DG-75): > 10.2 µM
- IC50 (REH): > 10.2 µM
- IC50 (TE-15): > 10.2 µM
- IC50 (NCCIT): > 10.2 µM
- IC50 (LOUCY): > 10.2 µM
- IC50 (SCC-3): > 10.2 µM
- IC50 (RPMI 8402): > 10.2 µM

Structure (SMILES): Cc1ccc(NC(=O)c2cccc(C(C)(C)C#N)c2)cc1Nc1ccc2ncn(C)c(=O)c2c1
- IC50 (TUR): > 4 µM
- IC50 (SNU-16): > 4 µM
- IC50 (NB17): > 4 µM
- IC50 (MHH-CALL-2): > 4 µM
- IC50 (LC-1F): 3.3 µM
- IC50 (Raji): > 4 µM
- IC50 (D-247MG): > 4 µM
- IC50 (NB7): > 4 µM
- IC50 (U-698-M): > 4 µM
- IC50 (A253 cell line): > 4 µM
- IC50 (DG-75): > 4 µM
- IC50 (REH): > 4 µM
- IC50 (TE-15): > 4 µM
- IC50 (NCCIT): > 4 µM
- IC50 (LOUCY): > 4 µM
- IC50 (SCC-3): > 4 µM
- IC50 (RPMI 8402): > 4 µM

Structure (SMILES): C/C(O)=C(\C#N)C(=O)Nc1cc(Br)ccc1Br
- IC50 (NCI-H2052): > 16000 nM
- IC50 (SCC-9): > 16000 nM
- IC50 (NCI-H2170): > 16000 nM
- IC50 (TUR): > 16 µM
- IC50 (U-118-MG): > 16000 nM
- IC50 (SNU-16): > 16 µM
- IC50 (T98G): > 16000 nM
- IC50 (HCC70): > 16000 nM
- IC50 (SW756): > 16000 nM
- IC50 (SW48): > 16000 nM
- IC50 (KYSE-510): > 16000 nM
- IC50 (NCI-H1651): > 16000 nM
- IC50 (NCI-H1623): > 16 µM
- IC50 (G-361): > 16 µM
- IC50 (BHT-101): > 16000 nM
- IC50 (NUGC-3): > 16000 nM
- IC50 (MHH-CALL-2): > 16 µM
- IC50 (KYSE-150 cell line): > 16000 nM
- IC50 (NCI-H1693): > 16000 nM
- IC50 (NCI-H1703): > 16000 nM
- IC50 (LC-1F): > 16 µM
- IC50 (HCT-15): > 16000 nM
- IC50 (Raji): > 16 µM
- IC50 (EFO-21): > 16000 nM
- IC50 (CAL-39): > 16000 nM
- IC50 (RCM-1): > 16 µM
- IC50 (BXPC-3): > 16000 nM
- IC50 (U-698-M): > 16 µM
- IC50 (OAW-28): > 16000 nM
- IC50 (HMV-2 cell line): > 16000 nM
- IC50 (SW837): > 16 µM
- IC50 (NCI-H2122): > 16000 nM
- IC50 (NCI-H2452): > 16000 nM
- IC50 (HuO-3N1): > 16000 nM
- IC50 (A253 cell line): > 16 µM
- IC50 (DoTc2-4510): > 16000 nM
- IC50 (MG-63): > 16000 nM
- IC50 (DG-75): > 16 µM
- IC50 (KYSE-270): > 16000 nM
- IC50 (REH): > 16 µM
- IC50 (HSC-4): > 16000 nM
- IC50 (CAPAN-1): > 16000 nM
- IC50 (HLE): > 16000 nM
- IC50 (SKG-IIIa): > 16000 nM
- IC50 (MFE-280): > 16000 nM
- IC50 (WM-115): > 16000 nM
- IC50 (TE-15): > 16 µM
- IC50 (PFSK-1): > 16000 nM
- IC50 (SF-295): > 16000 nM
- IC50 (BT-20): > 16000 nM
- IC50 (CAL-120): > 16000 nM
- IC50 (NCCIT): > 16 µM
- IC50 (CAL-72): > 16 µM
- IC50 (SNU-449): > 16 µM
- IC50 (SW13): > 16000 nM
- IC50 (EFO-27): > 16000 nM
- IC50 (SCC-3): > 16 µM
- IC50 (NCI-H292): > 16000 nM
- IC50 (A673): > 16000 nM
- IC50 (MDA-MB-453): > 16000 nM
- IC50 (RPMI 8402): > 16 µM

Structure (SMILES): CC[C@]1(O)C[C@@H]2CN(CCc3c([nH]c4ccccc34)[C@@](C(=O)OC)(c3cc4c(cc3OC)N(C)[C@H]3[C@@](O)(C(=O)OC)[C@H](OC(C)=O)[C@]5(CC)C=CCN6CC[C@]43[C@@H]65)C2)C1 [VINBLASTINE]
- IC50 (NCI-H2052): 24.6 nM
- IC50 (SCC-9): 10.7 nM
- IC50 (NCI-H2170): 33.4 nM
- IC50 (U-118-MG): 45.2 nM
- IC50 (T98G): 11.4 nM
- IC50 (HCC70): 20.8 nM
- IC50 (SW756): 14.7 nM
- IC50 (SW48): 6.94 nM
- IC50 (KYSE-510): 5.87 nM
- IC50 (NCI-H1651): 23 nM
- IC50 (NCI-H1623): > 0.1 µM
- IC50 (G-361): > 0.1 µM
- IC50 (BHT-101): 31.4 nM
- IC50 (NUGC-3): 3.46 nM
- IC50 (NB17): 0.0218 µM
- IC50 (KYSE-150 cell line): 46.5 nM
- IC50 (NCI-H1693): 78.2 nM
- IC50 (NCI-H1703): 1.43 nM
- IC50 (HCT-15): 78.6 nM
- IC50 (EFO-21): 44 nM
- IC50 (CAL-39): 5.11 nM
- IC50 (RCM-1): > 0.1 µM
- IC50 (D-247MG): 0.00698 µM
- IC50 (BXPC-3): 8.01 nM
- IC50 (NB7): > 0.1 µM
- IC50 (OAW-28): 40.7 nM
- IC50 (HMV-2 cell line): 3.9 nM
- IC50 (SW837): > 0.1 µM
- IC50 (NCI-H2122): 3.44 nM
- IC50 (NCI-H2452): 9.59 nM
- IC50 (HuO-3N1): 4.83 nM
- IC50 (DoTc2-4510): 16.5 nM
- IC50 (MG-63): 14.2 nM
- IC50 (KYSE-270): 9.63 nM
- IC50 (HSC-4): 2.36 nM
- IC50 (CAPAN-1): 52.3 nM
- IC50 (HLE): 4.23 nM
- IC50 (SKG-IIIa): 17.2 nM
- IC50 (MFE-280): 36.1 nM
- IC50 (WM-115): 10.2 nM
- IC50 (PFSK-1): 4.97 nM
- IC50 (SF-295): 36.3 nM
- IC50 (BT-20): 37.7 nM
- IC50 (CAL-120): 87.3 nM
- IC50 (CAL-72): > 0.1 µM
- IC50 (SNU-449): > 0.1 µM
- IC50 (SW13): 5.49 nM
- IC50 (EFO-27): 7.45 nM
- IC50 (NCI-H292): 3.03 nM
- IC50 (A673): 6.88 nM
- IC50 (MDA-MB-453): 3.29 nM
